Reference: US5204361A, “Method for treating laminitis in equine livestock” (priority 1988, dated 1993)
Where two headings read alike, the source gives them in different places.

Columns and labels:
[1] = tested on: caecal/large colon digesta; assay: Experiment 2 Part 5: efficacy of tylosin relative to virginiamycin, digesta incubated with glucose; assay type: cell-based, horse; details: for L-lactate: digesta incubated with glucose, 37°, 20 hours, mean
Method: An in vitro fermentation experiment was conducted to determine the efficacy of tylosin relative to virginiamycin. Samples of strained caecal and large colon digesta (16 ml) were incubated with glucose solution (60 ug/ml) (4 ml) and varying concentrations of either tylosin or virginiamycin representing […], 2.0, 4.0 ug of tylosin or virginiamycin per ml. The 25 ml containers were incubated at 37° for 20 hours. There were three replicates per treatment.

[2] = tested on: caecal/large colon digesta; assay: as above; assay type: cell-based, horse; details: antibiotic 1.00 μg/ml, 37°, 20 hours, mean
cattle = details: Nagaraja et al. (1981); cited from earlier work
horses = details: cited from earlier work
[3] = tested on: mixed caecal/large colon digesta; assay: Experiment 2 Part 1: in vitro fermentation of digesta with cornstarch, avoparcin, virginiamycin, flavomycin 2-32 ug/ml; assay type: cell-based, horse; design: Lactate / Total VFA: unit not given here; details: for pH / Acet:Prop / Lactate / Total VFA / control of lactic acid build-up: cornstarch 15 mg/ml; for pH / Acet:Prop / Lactate / Total VFA: mean
Method: (§1) Digesta was taken from the caecum and large colon from recently slaughtered animals and was filtered through nylon gauze (approximately 60 micron apertures). The fluid was diluted 1:1 with a buffer solution described by Bales et al. (1976) and incubated with wheat "corn starch" (with or without antibiotics) at 37° for 16 to 20 hours. Aliquots of digesta diluted with buffer (50 ml) were added to 100 ml conical flasks. The flasks were flushed with carbon dioxide before being sealed with a tightly fitting rubber cap. A 21 gauge needle was inserted through the rubber seal in order to allow gas to escape during the fermentation. On removal from the incubator sub-samples were immediately taken to measure L-lactic acid concentration and pH. For each treatment or level of antibiotic three replicate incubation flasks were used.
A range of concentrations of cornstarch providing: 0, 5, 10, 15 and 20 mg/ml diluted digesta (i.e. from 0 to 1 g cornstarch/conical flask) were tested to determine the amount required to produce a pattern of fermentation with high levels of lactic acid. Flasks were also prepared with cornstarch mixed with antibiotic premixes to provide 15 mg cornstarch/ml incubation mixture and 0, 2, 4, 8, 16 and 32 ug of avoparcin, virginiamycin or flavomycin per ml incubation mixture. After approximately 16 hour incubation at 37° samples were taken to measure lactic acid, VFA and pH.

[4] = tested on: caecal and large colon contents; assay: Experiment 2 Part 3: in vitro screening at 2 ug/ml in digesta of four horses; assay type: cell-based, horse; details: 2 ug antibiotic/ml, 15 mg cornstarch/ml, 20 hour incubation
Method: as §1
All four of the antibiotics, listed above, were incubated as previously described to provide 2 ug antibiotic and 15 mg cornstarch per ml incubation mixture. There was one flask per test and each antibiotic was incubated in digesta from both the caecum and the large colon taken from each of 4 animals. Samples of incubation fluid were taken following a 20 hour incubation and were analysed for L-lactate and pH.

[5] = tested on: horses dosed with 15 g wheat/kg liveweight; details: for D-lactic acid, caecum / D-lactic acid, large colon / L-lactic acid, large colon / Lameness (Obel grade): avoparcin 120 mg/kg wheat; for D-lactic acid, caecum / D-lactic acid, large colon / L-lactic acid, large colon: 24 hours after wheat; for Lameness (Obel grade): within 24 hours of wheat
Method: Four horses were dosed with 15 g wheat/kg liveweight. The wheat given to two of the animals contained 120 mg avoparcin/kg wheat, and the other two animals received the wheat without medication. Animals were examined prior to dosing and at intervals of eight hours after the dosing for a period of 24 hours. At these times temperature and heart rate were measured, and a sample of venous blood was taken for the measurement of pH, blood gases, bicarbonate, D-lactate and L-lactate. Animals were also examined for any signs of lameness according to the criteria of Obel (1948) as summarized by Garner et al (1977). After 24 hours all animals were slaughtered and samples of digesta were taken from the caecum and large colon for analysis of lactic acid, VFA and avoparcin concentration.

sheep = details: cited from earlier work
[6] = tested on: caecal/large colon digesta; assay: Experiment 2 Part 2: in vitro fermentation with cornstarch, antibiotics at or below 2 ug/ml; assay type: cell-based, horse; details: cornstarch 0.75 g per flask, 16 hours, mean
Method: as §1
Incubation flasks were set up as described above with cornstarch (0.75 g) containing virginiamycin, flavomycin or zinc-bacitracin a levels to provide: 0, 0.25, 0.5, 1.0 and 2 ug antibiotic/ml incubation mixture. These flasks were incubated for 16 hours. Flasks were also set up with 0.75 g cornstarch and no antibiotic equipped with a tap and sampling tube in order to take samples from the incubation vessels at various times during the fermentation. Samples were taken at the start of the incubation and at 2, 4, 6, 8, 12 and 24 h. These were analysed for L-lactate concentration and pH.

[7] = antibiotic 2 μg/ml, approx 16 hour incubation at 37°
[8] = antibiotic 2 μg/ml, approx 16 hour incubation
[9] = antibiotic 4 μg/ml, approx 16 hour incubation
[10] = antibiotic 8 μg/ml, approx 16 hour incubation
[11] = antibiotic 16 μg/ml, approx 16 hour incubation
[12] = antibiotic 32 μg/ml, approx 16 hour incubation
[13] = Horse 1, mean of caecum and large colon
[14] = Horse 2, mean of caecum and large colon
[15] = Horse 3, mean of caecum and large colon
[16] = Horse 4, mean of caecum and large colon

Q: For CC[C@H]1OC(=O)C[C@@H](O)[C@H](C)[C@@H](O[C@@H]2O[C@H](C)[C@@H](O[C@H]3C[C@@](C)(O)[C@@H](O)[C@H](C)O3)[C@H](N(C)C)[C@H]2O)[C@@H](CC=O)C[C@@H](C)C(=O)/C=C/C(C)=C/[C@@H]1CO[C@@H]1O[C@H](C)[C@@H](O)[C@@H](OC)[C@H]1OC [Tylosin, tylosin], which L-lactate ([1]; antibiotic 0.50 μg/ml) is on record?
A: 122 mmol/L

Q: And the L-lactate ([1]; antibiotic 2.00 μg/ml)?
A: 38.7 mmol/L

Q: And the L-lactate ([1]; antibiotic 4.00 μg/ml)?
A: 11.7 mmol/L

Q: And the “reduction in lactic acid levels compared with virginiamycin” value ([1]; at the concentrations used (0.5-4 ug/ml))?
A: did not cause the same reduction

Q: And the “concentration of lactic acid during the fermentation of soluble carbohydrate” value ([1]; higher levels of tylosin than virginiamycin required for similar reduction)?
A: can reduce the concentration of lactic acid

Q: And the L-lactate [2]?
A: 45.1 mmol/L

Q: With CC[C@@H](C(=O)[C@@H](C)[C@@H](O)[C@H](C)CCc1ccc(C)c(O)c1C(=O)O)[C@H]1O[C@](CC)([C@H]2CC[C@](O)(CC)[C@H](C)O2)C[C@@H]1C [lasalocid] as the compound, how does the “control of lactic acidosis” value (cattle) read?
A: lactic acidosis could be controlled

Q: What does the source list for CC[C@@]1([C@@H]2O[C@@H]([C@H]3O[C@@](O)(CO)[C@H](C)C[C@@H]3C)C[C@@H]2C)CC[C@H]([C@]2(C)CC[C@]3(C[C@H](O)[C@@H](C)[C@@H]([C@@H](C)[C@@H](OC)[C@H](C)C(=O)O)O3)O2)O1 [monensin]?
A: control of lactic acidosis (cattle): lactic acidosis could be controlled; toxicity on the host (horses): highly toxic

Q: With avoparcin as the compound, how does the pH [3, 7] read?
A: 6.14

Q: What about the “Acet:Prop” value [3, 8] of the same compound?
A: 2.9

Q: What about the Lactate [3, 8] of the same compound?
A: 8.9

Q: And the “Total VFA” value [3, 8]?
A: 102.6

Q: And the “Acet:Prop” value [3, 9]?
A: 2.8

Q: What about the Lactate [3, 9] of the same compound?
A: 12.0

Q: And the “Total VFA” value [3, 9]?
A: 100.9

Q: And the pH [3, 9]?
A: 6.17

Q: And the “Acet:Prop” value [3, 10]?
A: 3.3

Q: What about the Lactate [3, 10] of the same compound?
A: 11.0

Q: What about the “Total VFA” value [3, 10] of the same compound?
A: 82.1

Q: And the pH [3, 10]?
A: 6.33

Q: And the “Acet:Prop” value [3, 11]?
A: 3.5

Q: And the Lactate [3, 11]?
A: 10.3

Q: What about the “Total VFA” value [3, 11] of the same compound?
A: 87.1

Q: What about the pH [3, 11] of the same compound?
A: 6.40

Q: What about the “Acet:Prop” value [3, 12] of the same compound?
A: 3.6

Q: And the Lactate [3, 12]?
A: 15.1

Q: And the “Total VFA” value [3, 12]?
A: 89.8

Q: And the pH [3, 12]?
A: 6.43

Q: What about the “control of lactic acid build-up” value ([3]; even at 32 µg/ml) of the same compound?
A: only partially controlled

Q: And the “control of lactic acid” value ([3]; even at the highest concentrations (approx 32 times the minimum effective dose of virginiamycin))?
A: failed to completely control lactic acid

Q: And the pH ([4]; Horse 1)?
A: 5.12

Q: What about the L-lactate [4, 13] of the same compound?
A: 19.8 mmol/L

Q: What about the pH ([4]; Horse 2) of the same compound?
A: 4.57

Q: What about the L-lactate [4, 14] of the same compound?
A: 67.9 mmol/L

Q: What about the pH ([4]; Horse 3) of the same compound?
A: 4.75

Q: What about the L-lactate [4, 15] of the same compound?
A: 34.5 mmol/L

Q: And the pH ([4]; Horse 4)?
A: 5.15

Q: What about the L-lactate [4, 16] of the same compound?
A: 20.0 mmol/L

Q: What about the L-lactate ([4]; Mean of 4 horses) of the same compound?
A: 35.5 mmol/L

Q: And the pH ([4]; Mean of 4 horses)?
A: 4.90

Q: And the “Lactic acid concentrations, large colon digesta versus caecal contents” value ([5]; animals given avoparcin)?
A: appreciably lower in the large colon digesta

Q: And the “D-lactic acid, caecum” value ([5]; horse 2)?
A: 33 mmol/L

Q: And the “D-lactic acid, large colon” value ([5]; horse 2)?
A: 2 mmol/L

Q: And the “L-lactic acid, large colon” value ([5]; horse 2)?
A: 2 mmol/L

Q: What about the “Lameness (Obel grade)” value ([5]; horse 2) of the same compound?
A: Obel 2

Q: And the “D-lactic acid, caecum” value ([5]; horse 4)?
A: 34 mmol/L

Q: What about the “D-lactic acid, large colon” value ([5]; horse 4) of the same compound?
A: 11 mmol/L

Q: And the “L-lactic acid, large colon” value ([5]; horse 4)?
A: 10 mmol/L

Q: And the “Lameness (Obel grade)” value ([5]; horse 4)?
A: Obel 2

Q: And the “concentrations of the antibiotic, caecum versus large colon” value ([5]; in vivo)?
A: lower in the caecum than in the large colon

Q: What about the “Lactic acid accumulation in the hind-gut and lameness” value ([5]; wheat slurry with and without avoparcin) of the same compound?
A: developed irrespective of the presence of avoparcin

Q: And the “control of lactic acid” value (sheep; sheep dosed with round wheat, Aitchison et al. (1986))?
A: particularly effective

Q: What does the source list for bacitracin zinc [Zn-bacitracin]?
A: L-lactate ([6]; antibiotic 0.25 μg/ml): 20.6 mmol/L; pH ([6]; antibiotic 0.25 μg/ml): 5.64; L-lactate ([6]; antibiotic 0.50 μg/ml): 17.8 mmol/L; pH ([6]; antibiotic 0.50 μg/ml): 5.86; L-lactate ([6]; antibiotic 1.00 μg/ml): 15.9 mmol/L; pH ([6]; antibiotic 1.00 μg/ml): 5.68; L-lactate ([6]; antibiotic 2.00 μg/ml): 14.7 mmol/L; pH ([6]; antibiotic 2.00 μg/ml): 5.59; pH ([4]; Horse 1): 4.91; L-lactate [4, 13]: 26.8 mmol/L; pH ([4]; Horse 2): 4.59; L-lactate [4, 14]: 62.5 mmol/L; pH ([4]; Horse 3): 4.76; L-lactate [4, 15]: 35.1 mmol/L; pH ([4]; Horse 4): 5.11; L-lactate [4, 16]: 22.2 mmol/L; L-lactate ([4]; Mean of 4 horses): 36.6 mmol/L; pH ([4]; Mean of 4 horses): 4.84

Q: For flavomycin (bambermycin), which pH [3, 7] is on record?
A: 6.57

Q: And the “Acet:Prop” value [3, 8]?
A: 3.4

Q: And the Lactate [3, 8]?
A: 0.0

Q: And the “Total VFA” value [3, 8]?
A: 88.9

Q: And the “Acet:Prop” value [3, 9]?
A: 4.6

Q: What about the Lactate [3, 9] of the same compound?
A: 0.0

Q: What about the “Total VFA” value [3, 9] of the same compound?
A: 93.7

Q: What about the pH [3, 9] of the same compound?
A: 6.52

Q: What about the “Acet:Prop” value [3, 10] of the same compound?
A: 5.7

Q: And the Lactate [3, 10]?
A: 0.0

Q: What about the “Total VFA” value [3, 10] of the same compound?
A: 90.0

Q: What about the pH [3, 10] of the same compound?
A: 6.48

Q: What about the “Acet:Prop” value [3, 11] of the same compound?
A: 5.8

Q: And the Lactate [3, 11]?
A: 0.0

Q: And the “Total VFA” value [3, 11]?
A: 85.6

Q: And the pH [3, 11]?
A: 6.47

Q: And the “Acet:Prop” value [3, 12]?
A: 5.8

Q: And the Lactate [3, 12]?
A: 0.2

Q: And the “Total VFA” value [3, 12]?
A: 93.7

Q: And the pH [3, 12]?
A: 6.41

Q: What about the “control of lactic acid build-up” value ([3]; at concentrations as low as 2 g/ml) of the same compound?
A: total control

Q: And the L-lactate ([6]; antibiotic 0.25 μg/ml)?
A: 12.4 mmol/L

Q: And the pH ([6]; antibiotic 0.25 μg/ml)?
A: 5.69

Q: And the L-lactate ([6]; antibiotic 0.50 μg/ml)?
A: 7.3 mmol/L

Q: And the pH ([6]; antibiotic 0.50 μg/ml)?
A: 5.67

Q: And the L-lactate ([6]; antibiotic 1.00 μg/ml)?
A: 9.9 mmol/L

Q: What about the pH ([6]; antibiotic 1.00 μg/ml) of the same compound?
A: 5.67

Q: What about the L-lactate ([6]; antibiotic 2.00 μg/ml) of the same compound?
A: 11.7 mmol/L

Q: What about the pH ([6]; antibiotic 2.00 μg/ml) of the same compound?
A: 5.56

Q: And the pH ([4]; Horse 1)?
A: 4.88

Q: And the L-lactate [4, 13]?
A: 31.8 mmol/L

Q: And the pH ([4]; Horse 2)?
A: 4.54

Q: And the L-lactate [4, 14]?
A: 55.6 mmol/L

Q: And the pH ([4]; Horse 3)?
A: 4.98

Q: And the L-lactate [4, 15]?
A: 17.9 mmol/L

Q: What about the pH ([4]; Horse 4) of the same compound?
A: 5.07

Q: What about the L-lactate [4, 16] of the same compound?
A: 23.7 mmol/L

Q: What about the L-lactate ([4]; Mean of 4 horses) of the same compound?
A: 32.2 mmol/L

Q: What about the pH ([4]; Mean of 4 horses) of the same compound?
A: 4.86

Q: For thiopeptin, which “control of wheat-induced acidosis” value (sheep; sheep, Muir et al (1980)) is on record?
A: control of wheat-induced acidosis
